According to US11932609B1 (priority 2023, dated 2024):

SMILES | melting point [°C]
CCOC(=O)C1=C(C)NC(Nc2ccccc2)=NC1c1ccc(F)cc1 (centres unmarked) [DHPM-KNV1, Ethyl 4-(4-fluorophenyl)-6-methyl-2-(phenylamino)-1,4-dihydropyrimidine-5-carboxylate] | 92 to 93
CCOC(=O)C1=C(C)NC(Nc2ccc(Cl)cc2)=NC1c1ccc(F)cc1 (centres unmarked) [DHPM-KNV3, Ethyl 2-((4-chlorophenyl)amino)-4-(4-fluorophenyl)-6-methyl-1,4-dihydropyrimidine-5-carboxylate] | 188 to 189
CCOC(=O)C1=C(C)NC(Nc2ccc(C(C)C)cc2)=NC1c1ccc(F)cc1 (centres unmarked) [DHPM-KNV4, Ethyl 4-(4-fluorophenyl)-2-((4-isopropylphenyl)amino)-6-methyl-1,4-dihydropyrimidine-5-carboxylate] | 125 to 126
CCOC(=O)C1=C(C)NC(Nc2ccccc2I)=NC1c1ccc(F)cc1 (centres unmarked) [DHPM-KNV8, Ethyl 4-(4-fluorophenyl)-2-((2-iodophenyl)amino)-6-methyl-1,4-dihydropyrimidine-5-carboxylate] | 229 to 230
CCOC(=O)C1=C(C)NC(Nc2ccc(C(F)(F)F)cc2OC)=NC1c1ccc(F)cc1 (centres unmarked) [DHPM-KNV9, Ethyl 4-(4-fluorophenyl)-2-((2-methoxy-4-(trifluoromethyl)phenyl)amino)-6-methyl-1,4-dihydropyrimidine-5-carboxylate] | 213 to 214

Results, then the molecule that gave them:

melting point [°C] | SMILES
120 to 121 | CCOC(=O)C1=C(C)NC(Nc2ccc(Br)cc2)=NC1c1ccc(F)cc1 (centres unmarked) [DHPM-KNV2, Ethyl 2-((4-bromophenyl)amino)-4-(4-fluorophenyl)-6-methyl-1,4-dihydropyrimidine-5-carboxylate]
176 to 177 | CCOC(=O)C1=C(C)NC(Nc2ccc(Cl)c(C(F)(F)F)c2)=NC1c1ccc(F)cc1 (centres unmarked) [DHPM-KNV5, Ethyl 2-((4-chloro-3-(trifluoromethyl)phenyl)amino)-4-(4-fluorophenyl)-6-methyl-1,4-dihydropyrimidine-5-carboxylate]
175 to 176 | CCOC(=O)C1=C(C)NC(Nc2ccc3ncsc3c2)=NC1c1ccc(F)cc1 (centres unmarked) [DHPM-KNV7, Ethyl 2-(benzo[d]thiazol-6-ylamino)-4-(4-fluorophenyl)-6-methyl-1,4-dihydropyrimidine-5-carboxylate]
